Data as given in PMC9027532, “Preclinical Pharmacokinetic Studies of a Novel Diuretic Inhibiting Urea Transporters” (Molecules, 2022).

What was measured:
SD rats = assay: PK-PD study: urine output increment (diuresis) in rats; assay type: in vivo, Sprague-Dawley rats
Protocol: Blood samples were collected via orbital venous plexus into tubes with K2–EDTA on the ice at 0.083, 0.167, 0.25, 0.5, 1, 2, 4, 6, 8, 12, and 24 h. […] Blood was collected at 0.033, 0.083, 0.25, 0.5, 1, 2, 3, 4, 6, 12, and 24 h. Plasma was obtained by centrifugation at 3000 rpm for 10 min at 4 °C. For the PK–PD relationship study, the total urine of rats within 24 h was collected and weighed. The urine output was approximately calculated by assuming the density of urine was 1 g/mL. The diuresis effect was the urine output increment over the baseline urine output of each rat. The plasma and urine samples were stored at −80 °C until analysis.

[1] = Pharmacokinetic study in rats (plasma, LC-MS/MS, NCA); details: male, Sprague-Dawley, rat, plasma; for MRT / CL/F / Cmax / bioavailability / concentration at 0.083 h / concentration at 0.167 h / concentration at 0.25 h / concentration at 0.5 h / concentration at 1 h / concentration at 2 h / concentration at 4 h / concentration at 6 h / concentration at 8 h / concentration at 12 h / concentration at 24 h / Tmax: rats; for half-life: t1/2, rats; for bioavailability: F (oral bioavailability); for concentration at 0.083 h / concentration at 0.167 h / concentration at 0.25 h / concentration at 0.5 h / concentration at 1 h / concentration at 2 h / concentration at 4 h / concentration at 6 h / concentration at 8 h / concentration at 12 h / concentration at 24 h: Mean plasma concentration
Protocol: Blood samples were collected via orbital venous plexus into tubes with K2–EDTA on the ice at 0.083, 0.167, 0.25, 0.5, 1, 2, 4, 6, 8, 12, and 24 h. […] Blood was collected at 0.033, 0.083, 0.25, 0.5, 1, 2, 3, 4, 6, 12, and 24 h. Plasma was obtained by centrifugation at 3000 rpm for 10 min at 4 °C. […] The plasma and urine samples were stored at −80 °C until analysis. The PK parameters were calculated by DAS 3.2.8 software (Beijing, China) using the noncompartmental analysis (NCA) model. The oral bioavailability (F) was calculated by F = (AUCp.o. × Dosei.v.)/(AUCi.v. × Dosep.o.).

[2] = iv, 1 mg/kg, single i.v. 1 mg/kg
[3] = po, 25 mg/kg, single p.o. 25 mg/kg
[4] = po, 50 mg/kg, single p.o. 50 mg/kg
[5] = po, 100 mg/kg, multiple p.o. 100 mg/kg, twice per day for 7 days
[6] = po, 100 mg/kg, single p.o. 100 mg/kg

## CC(=O)Nc1ccc(NC(=O)c2ccc(C(C)=O)o2)cc1 [Compound 25a, N-(4-acetamidophenyl)-5-acetylfuran-2-carboxamide]
SD rats; p.o. 25 mg/kg
  urine output increment per 12 h (diuresis): 0.5 ± 0.2 mL
SD rats; p.o. 50 mg/kg
  urine output increment per 12 h (diuresis): 1.6 ± 0.8 mL
SD rats; p.o. 100 mg/kg
  urine output increment per 12 h (diuresis): 2.7 ± 0.9 mL
[1]; iv, 1 mg/kg
  AUC(0-inf): 503 ± 124 ng·h/mL
  AUC(0-t): 501 ± 124 ng·h/mL
  C0: 1710 ± 398 ng/mL
[1]; [2]
  MRT: 0.6 ± 0.1 h
  half-life: 0.89 ± 0.52 h
[1]; po, 25 mg/kg
  AUC(0-inf): 2530 ± 362 ng·h/mL
  AUC(0-t): 2520 ± 395 ng·h/mL
[1]; [3]
  CL/F: 165 mL/min/kg
  Cmax: 515 ± 107 ng/mL
  bioavailability: 20.1 ± 0.8%
  MRT: 5.2 ± 0.4 h
  concentration at 0.083 h: 282 ± 62.3 ng/mL
  concentration at 0.167 h: 431 ± 116 ng/mL
  concentration at 0.25 h: 515 ± 122 ng/mL
  concentration at 0.5 h: 167 ± 33.5 ng/mL
  concentration at 1 h: 245 ± 92.5 ng/mL
  concentration at 2 h: 206 ± 83.7 ng/mL
  concentration at 4 h: 372 ± 74.3 ng/mL
  concentration at 6 h: 230 ± 49.7 ng/mL
  concentration at 8 h: 102 ± 7.7 ng/mL
  concentration at 12 h: 36.8 ± 2.7 ng/mL
  concentration at 24 h: 2.1 ± 1.3 ng/mL
  half-life: 2.86 ± 0.29 h
  Tmax: 0.25 h
[1]; po, 50 mg/kg
  AUC(0-inf): 4740 ± 854 ng·h/mL
  AUC(0-t): 4730 ± 854 ng·h/mL
[1]; [4]
  CL/F: 175 mL/min/kg
  Cmax: 693 ± 260 ng/mL
  bioavailability: 18.9 ± 1.7%
  concentration at 0.083 h: 236 ± 93.5 ng/mL
  concentration at 0.167 h: 380 ± 173 ng/mL
  concentration at 0.25 h: 496 ± 211 ng/mL
  concentration at 0.5 h: 693 ± 272 ng/mL
  concentration at 1 h: 429 ± 149 ng/mL
  concentration at 2 h: 454 ± 97.6 ng/mL
  concentration at 4 h: 553 ± 97.8 ng/mL
  concentration at 6 h: 383 ± 166 ng/mL
  concentration at 8 h: 271 ± 75.1 ng/mL
  concentration at 12 h: 78.3 ± 36.1 ng/mL
  concentration at 24 h: 3.6 ± 1.1 ng/mL
  half-life: 2.63 ± 0.2 h
  Tmax: 0.5 h
[1]; po, 100 mg/kg
  AUC(0-inf): 12100 ng·h/mL
  AUC(0-t): 11800 ng·h/mL
[1]; [5]
  CL/F: 137 mL/min/kg
  Cmax: 1710 ± 185 ng/mL
  bioavailability: 23.5 ± 2.3%
  MRT: 6.5 ± 0.6 h
[1]; [6]
  CL/F: 240 mL/min/kg
  Cmax: 1320 ± 228 ng/mL
  bioavailability: 13.8 ± 0.8%
